{"source": "paper PMC9827809", "about": "“Identification of sitagliptin binding proteins by affinity purification mass spectrometry” (Acta Biochimica et Biophysica Sinica, 2022)", "type_in_all_cases": "binding", "key": {"[1]": {"biological_target": "T1, cell cycle and apoptosis regulator protein 2 (CCAR2) (Homo sapiens, UniProt Q8N163)", "T1 construct": "C-terminal Flag tag fused CCAR2 in pGEX-4T-1 (GST-tagged), expressed in E. coli BL21 (DE3)", "assay": "SPR (Biacore 8K, CM5 chip, immobilized protein); also SILAC AP-MS from HEK293T lysate"}, "[2]": {"biological_target": "T2, T-complex protein 1 subunit alpha (TCP1) (Homo sapiens, UniProt P17987, D88A)", "T2 construct": "TCP1 mutant D88A", "T2 sequence (P17987 whole entry D88A, one chain of several)": "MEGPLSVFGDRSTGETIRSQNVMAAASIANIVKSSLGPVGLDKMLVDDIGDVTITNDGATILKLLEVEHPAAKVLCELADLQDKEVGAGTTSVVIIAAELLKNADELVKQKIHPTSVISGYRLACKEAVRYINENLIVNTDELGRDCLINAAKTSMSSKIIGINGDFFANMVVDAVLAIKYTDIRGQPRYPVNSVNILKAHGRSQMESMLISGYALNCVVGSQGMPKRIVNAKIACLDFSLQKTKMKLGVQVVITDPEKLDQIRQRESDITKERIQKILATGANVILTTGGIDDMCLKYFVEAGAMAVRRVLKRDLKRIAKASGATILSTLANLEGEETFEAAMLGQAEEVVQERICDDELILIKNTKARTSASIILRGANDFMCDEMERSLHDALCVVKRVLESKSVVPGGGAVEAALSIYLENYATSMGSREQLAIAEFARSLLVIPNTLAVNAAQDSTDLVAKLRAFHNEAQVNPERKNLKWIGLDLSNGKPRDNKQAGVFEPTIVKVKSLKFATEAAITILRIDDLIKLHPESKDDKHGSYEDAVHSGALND", "assay": "SPR on mutant TCP1"}, "[3]": {"biological_target": "T3, T-complex protein 1 subunit alpha (TCP1) (Homo sapiens, UniProt P17987)", "T3 construct": "C-terminal Flag-His6 tag fused TCP1, expressed in E. coli BL21 (DE3)", "T3 sequence (P17987 whole entry, the tested form may be a part, one chain of several)": "as the sequence (P17987 whole entry D88A, one chain of several) above, with A88D counted along it", "assay": "SPR (Biacore 8K, CM5 chip, immobilized protein); also SILAC AP-MS from HEK293T lysate"}, "[4]": {"biological_target": "T4, lysophospholipase-like 1 (LYPLAL1) (Homo sapiens, UniProt Q5VWZ2)", "T4 construct": "LYPLAL1 in pDEST15, expressed in E. coli BL21 (DE3)", "T4 sequence (Q5VWZ2 2-237)": "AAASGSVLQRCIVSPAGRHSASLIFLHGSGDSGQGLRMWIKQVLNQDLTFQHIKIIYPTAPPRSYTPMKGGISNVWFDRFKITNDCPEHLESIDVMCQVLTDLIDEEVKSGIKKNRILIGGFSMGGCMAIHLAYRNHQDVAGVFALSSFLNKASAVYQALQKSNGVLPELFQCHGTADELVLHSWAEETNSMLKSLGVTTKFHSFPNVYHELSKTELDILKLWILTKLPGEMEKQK", "assay": "SPR (Biacore 8K, CM5 chip, immobilized protein); also SILAC AP-MS from HEK293T lysate"}}, "note": "pKd: −log10 of the molar value.", "data": [{"smiles": "O=C(CCCC[C@@H]1SC[C@@H]2NC(=O)N[C@@H]21)NCCOCCOCCOCCOCCOCc1cn([C@@H](CC(=O)N2CCn3c(nnc3C(F)(F)F)C2)Cc2cc(F)c(F)cc2F)nn1", "note": "[biotin-PEG5-sitagliptin]", "values": [{"measurement": "pKd", "setting": "[1]", "value": 3.36}, {"measurement": "pKd", "setting": "[2]", "value": 3.31}, {"measurement": "pKd", "setting": "[3]", "value": 4.30}, {"measurement": "pKd", "setting": "[4]", "value": 2.84}]}]}
